Data as given in patent publication US20190297888A1, “FUNGICIDAL COMPOUNDS AND MIXTURES FOR FUNGAL CONTROL IN CEREALS” (Dow AgroSciences LLC, priority 2016, published 2019).

Key:
Assay type in all cases: in vivo
[1] = tested on: Puccinia hordei (PUCCHD); test: Field assessment of Compound I and fluxapyroxad on rust of barley (AUDPC % control); details: AUDPC-based, 2 field trials
Protocol: (§1) Commercial standards used in the studies were Proline 275 (275 g ai/L Prothioconazole), applied at 150 g ai/ha, and SiltraXpro (200 g ai/L prothioconazole+60 g ai/[…] bixafen), applied at 195 g ai/ha.
Fungicidal treatments containing the compound of Formula I and fluxapyroxad, either individually or as a two-way mixture, were assessed against rust of barley (PUCCHD) in two separate field trials. In both trials, fungicidal treatments were applied at B37-39 growth stages of winter barley (Lomeritt variety) under natural infection of barley rust. All treatments were part of an experimental trial designed as a randomized complete block with four replications.
(§2) Disease severity (percentage of visual diseased foliage on whole plot or leaves) in five field trials was recorded following EPPO PP1/26 guideline prescriptions. Area under the disease progress curve (AUDPC) was calculated for each plot in both trials using the sets of recorded severity data. Relative AUDPC (% control based on AUDPC) was calculated as percent of the nontreated control. […] Statistical analysis was done according to ANOVA and Tukey's test (p=0.10).

[2] = tested on: Puccinia triticina (PUCCRT); test: Field assessment of Compound I and fluxapyroxad on brown rust of wheat (AUDPC % control); details: AUDPC-based, 5 field trials
From the text: (§3) Treatments consisting of the compound of Formula I and fungicide compound fluxapyroxad against fungal diseases of wheat were applied either using individually or as a two-way mixture of fluxapyroxad with the compound of Formula I. The compound of Formula I was applied with Agnique BP-420 (50% w/w at 0.3% v/v) at 50, 75 and 100 g ai/ha and Imtrex (Fluxapyroxad 62.5 g/L) was applied at 50, 75 and 100 g ai/ha. Commercial standards used in the studies were Adexar (epoxiconazole+fluxapyroxad—125 g/L), applied at 1.2 and 1.6 L pr/ha, and Elatus Era (benzovindiflupyr+prothioconazole—225 g/L), applied at 1.0 L pr/ha.
Fungicidal treatments containing the compound of Formula I and fluxapyroxad, either individually or as a two-way mixture, were assessed against brown rust of wheat (PUCCRT) in five separate field trials. In all trials, fungicidal treatments were applied at B34-51 growth stages of winter wheat (TRZAW; ATOUDUR, MIRADOUX, IRIDIUM or MV Vanek variety) under natural infection of brown rust (protectant tests, approximately 0-8% infection on leaf 3 or 4 at application). All treatments were part of an experimental trial designed as a randomized complete block with four replications and plot sizes of approximately 2×2 m to 2×7.5 m. Fungicidal treatments were applied at a water volume of 200 L/ha, using a backpack plot sprayer (BKPKAIR or BKPCENG) with a FLATFAN or AIRASST Nozzle pressurized at 210-250 kPa.
(§4) Disease severity (percentage of visual diseased foliage on whole plot or leaves) in five field trials was recorded following EPPO PP1/26 guideline prescriptions. Area under the disease progress curve (AUDPC) was calculated for each plot in […] trials using the sets of recorded severity data. Relative AUDPC (% control based on AUDPC) was calculated as percent of the nontreated control. Final results for the control of brown rust of wheat by the compound of Formula I, fluxapyroxad and mixtures are reported as an average of the relative AUDPC calculated over all five field trials. Statistical analysis was done according to ANOVA and Tukey's test (p=0.10).

[3] = tested on: Puccinia striiformis (PUCCST); test: Field assessment of Compound I and fluxapyroxad on yellow rust of wheat (AUDPC % control); details: AUDPC-based, 2 field trials
From the text: as §3
Fungicidal treatments containing the compound of Formula I and fluxapyroxad, either individually or as a two-way mixture, were assessed against yellow rust of wheat (PUCCST) in two separate field trials. In the first trial, fungicidal treatments were applied once at B37 (early curative, 6.5% infection at application on L3) growth stage of winter wheat (TRZAW, Fairplay variety). The treatments were part of an experimental trial designed as a randomized complete block with four replications and a plot of approximately 2×6 m. Treatments were applied at water volume of 200 L/ha, using a backpack plot sprayer (BKPCKAIR, FLATFANA nozzle) and pressurized at 300 kPa.
In the second trial, fungicidal treatments containing the compound of Formula I and fluxapyroxad, either individually or as a two-way mixture, were applied once at B33-37 (early curative, 0.5% infection on L2 at application) growth stages of wheat (TRZAW, SOLSTICE variety). The treatment was part of an experimental trial designed as a randomized complete block with four replications and a plot of approximately 1.5×14 m. Treatments were applied at water volume of 200 L/ha, using a backpack precision plot sprayer (BKCKAIR, FLAT FAN nozzle) and pressurized at 210 kPa.
as §4, with “both” for “five”, “yellow” for “brown”, “both” for “all five”

[4] = tested on: Rhyncosporium secalis (RHYNSE); test: Field assessment of Compound I and fluxapyroxad on leaf scald of barley (AUDPC % control); details: AUDPC-based, one field trial
Protocol: as §1
Fungicidal treatments containing the compound of Formula I and fluxapyroxad, either individually or as a two-way mixture, were assessed against scald of barley (RHYNSE) in one field trial. In the trial, fungicidal treatments were applied at B37-39 growth stages of winter barley (HORVW, Maris Otter variety) under natural infection of barley scald (protectant test, approximately 1% infection on leaf 4 at application). All treatments were part of an experimental trial designed as a randomized complete block with four replications.
as §2, with “the” for “five”, “trial” for “trials”, “the trial” for “both trials”

Compound	PUCCHD % Control ([1]; rate 75 g ai/ha)	PUCCHD % Control ([1]; rate 100 g ai/ha)	PUCCHD % Control ([1]; rate 150 g ai/ha)	PUCCRT % Control ([2]; rate 50 g ai/ha)	PUCCRT % Control ([2]; rate 75 g ai/ha)	PUCCRT % Control ([2]; rate 100 g ai/ha)	PUCCST % Control ([3]; rate 50 g ai/ha)	PUCCST % Control ([3]; rate 75 g ai/ha)	PUCCST % Control ([3]; rate 100 g ai/ha)	RHYNSE % Control ([4]; rate 75 g ai/ha)	RHYNSE % Control ([4]; rate 100 g ai/ha)	RHYNSE % Control ([4]; rate 150 g ai/ha)	PUCCHD % Control ([1]; rate 45 g ai/ha)	PUCCHD % Control ([1]; rate 62.5 g ai/ha)	RHYNSE % Control ([4]; rate 45 g ai/ha)	RHYNSE % Control ([4]; rate 62.5 g ai/ha)
N#Cc1ccc(Oc2ccc(C(F)(F)C(O)(Cn3ncnc3S)c3ccc(F)cc3F)nc2)cc1 (stereo not drawn) [Compound I, 4-((6-(2-(2,4-difluorophenyl)-1,1-difluoro-2-hydroxy-3-(5-mercapto-1H-1,2,4-triazol-1-yl)propyl)pyridin-3-yl)oxy)benzonitrile]	71.0%	75.3%	88.8%	86.0%	90.0%	93.4%	80.0%	93.3%	98.0%	67.2%	61.3%	81.1%				
Cn1cc(C(=O)Nc2ccccc2-c2cc(F)c(F)c(F)c2)c(C(F)F)n1 [Fluxapyroxad, 3-(difluoromethyl)-1-methyl-N-(3′,4′,5′-trifluorobiphenyl-2-yl)pyrazole-4-carboxamide]		68.7%		84.0%	94.0%	95.3%	74.1%	69.0%	79.4%		95.7%		49.0%	54.5%	78.7%	77.2%
